Patent US12275729B2 (Merck Sharp & Dohme LLC, priority 2017, dated 2025)

target: IDO1 (Homo sapiens, UniProt P14902); test: IDO1 Cellular Assay in HeLa Cells Stimulated with IFNγ; format: cell-based; conditions: about 48 hours, read-out: Hela IC50
Sequence (P14902 whole entry): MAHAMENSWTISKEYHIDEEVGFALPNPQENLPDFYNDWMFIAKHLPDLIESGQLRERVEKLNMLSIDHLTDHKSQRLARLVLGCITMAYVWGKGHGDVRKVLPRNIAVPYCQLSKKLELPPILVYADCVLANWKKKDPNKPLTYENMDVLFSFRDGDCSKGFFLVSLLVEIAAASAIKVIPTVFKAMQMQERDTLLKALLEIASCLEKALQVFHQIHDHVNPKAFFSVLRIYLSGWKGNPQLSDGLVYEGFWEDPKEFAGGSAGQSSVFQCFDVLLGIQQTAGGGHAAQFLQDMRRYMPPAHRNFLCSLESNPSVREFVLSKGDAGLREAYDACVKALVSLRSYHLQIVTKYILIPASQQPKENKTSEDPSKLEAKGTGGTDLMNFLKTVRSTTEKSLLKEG

Q: With `CC(NC(=O)c1ccc(F)cc1)c1ccc2c(n1)CCCN2C(=O)c1ccn(C2CC2)n1` (stereo in doubt) [Example 144, N-{(1R)-1-[5-(1-cyclopropyl-1H-pyrazole-3-carbonyl)-5,6,7,8-tetrahydro-1,5-naphthyridin-2-yl]ethyl}-4-fluorobenzamide] as the molecule, how does the IC50 read?
A: 18.1 nM

Q: With `C[C@H](C(=O)Nc1ccc(F)cc1)c1ccc2c(c1)CCCN2C(=O)CC1CC1` [Example 82, (2S)-2-[1-(cyclopropylacetyl)-1,2,3,4-tetrahydroquinolin-6-yl]-N-(4-fluorophenyl)propanamide] as the molecule, how does the IC50 read?
A: 10.9 nM

Q: For `O=C(N1CCCC1)N1CCCc2cc(C3(C(=O)Nc4ccc(F)cn4)CCC3)ccc21` [Example 103, N-(5-fluoropyridin-2-yl)-1-[1-(pyrrolidine-1-carbonyl)-1,2,3,4-tetrahydroquinolin-6-yl]cyclobutane-1-carboxamide], which IC50 is on record?
A: 76.7 nM

Q: Which IC50 does the source give for `Cc1noc(C(=O)NCc2ccc3c(c2)CCCN3C(=O)c2cccc(Cl)c2)n1` [Example 21, N-{[1-(3-chlorobenzene-1-carbonyl)-1,2,3,4-tetrahydroquinolin-6-yl]methyl}-3-methyl-1,2,4-oxadiazole-5-carboxamide] here?
A: 40.5 nM

Q: For `O=C(C1CC1)N1CCCc2nc(C3(C(=O)Nc4ccc(F)cn4)CCC3)ccc21` [Example 169, 1-[5-(cyclopropanecarbonyl)-5,6,7,8-tetrahydro-1,5-naphthyridin-2-yl]-N-(5-fluoropyridin-2-yl)cyclobutane-1-carboxamide], which IC50 is on record?
A: 55.7 nM

Q: For `COC(=O)N1CCCc2nc(C3(C(=O)Nc4ccc(F)cc4)CCC3)ccc21` [Example 216, methyl 6-{1-[(4-fluorophenyl)carbamoyl]cyclobutyl}-3,4-dihydro-1,5-naphthyridine-1(2H)-carboxylate], which IC50 is on record?
A: 1.5 nM

Q: How did the IC50 turn out when `O=C(Nc1ccc(F)cc1)C(c1ccc2c(n1)CCCN2C(=O)C1CC1)C1CC1` (single isomer, unassigned) [Example 261, 2-(5-(cyclopropanecarbonyl)-5,6,7,8-tetrahydro-1,5-naphthyridin-2-yl)-2-cyclopropyl-N-(4-fluorophenyl)acetamide] was run?
A: 24 nM

Q: How did the IC50 turn out when `CC(NC(=O)c1ccc(F)cc1)c1ccc2c(c1)CCCN2C(CO)c1cccc(Cl)c1` (single isomer, unassigned) [Example 95] was run?
A: 545 nM

Q: Which IC50 does the source give for `O=C(c1cc(C(F)(F)F)n[nH]1)N1CCCc2cc(C3(C(=O)Nc4ccc(F)cc4)CCC3)ccc21` [Example 116, N-(4-fluorophenyl)-1-{1-[3-(trifluoromethyl)-1H-pyrazole-5-carbonyl]-1,2,3,4-tetrahydroquinolin-6-yl}cyclobutane-1-carboxamide] here?
A: 51.4 nM

Q: Which IC50 does the source give for `CC(C)CC(=O)N1CCCc2cc(CNC(=O)c3ccc(Cl)c(Cl)c3)ccc21` [Example 8, 3,4-dichloro-N-{[1-(3-methylbutanoyl)-1,2,3,4-tetrahydroquinolin-6-yl]methyl}benzamide] here?
A: 276 nM

Q: For `O=C(NC1(c2ccc3c(n2)CCCN3C(=O)C2CCCCO2)CC1)c1ccc(F)cc1` (stereo not shown) [Example 170, 4-fluoro-N-{1-[5-(oxane-2-carbonyl)-5,6,7,8-tetrahydro-1,5-naphthyridin-2-yl]cyclopropyl}benzamide], which IC50 is on record?
A: 2.4 nM

Q: `CC(NC(=O)c1ccc(Cl)cc1)c1ccc2c(n1)CCCN2C(=O)c1cc(C2CC2)ccn1` (stereo not shown) [Example 288, 4-chloro-N-(1-(5-(4-cyclopropylpicolinoyl)-5,6,7,8-tetrahydro-1,5-naphthyridin-2-yl)ethyl)benzamide] was tested. Which IC50 did it give?
A: 3.2 nM

Q: With `C[C@H](C(=O)Nc1ccc(F)cc1)c1ccc2c(c1)CCCN2C(=O)[C@@H]1CCCCO1` (single isomer, unassigned) [Example 88] as the molecule, how does the IC50 read?
A: 3.1 nM

Q: With `Cn1cc(C(=O)N2CCCc3nc(C4(NC(=O)c5ccc(F)cc5)CC4)ccc32)cn1` [Example 173, 4-fluoro-N-{1-[5-(1-methyl-1H-pyrazole-4-carbonyl)-5,6,7,8-tetrahydro-1,5-naphthyridin-2-yl]cyclopropyl}benzamide] as the molecule, how does the IC50 read?
A: 39.9 nM

Q: With `CC(C(=O)Nc1ccc(F)cc1)c1ccc2c(n1)CCCN2C(=O)c1cccc(S(C)(=O)=O)c1` (stereo not shown) [Example 285, N-(4-fluorophenyl)-2-(5-(3-(methylsulfonyl)benzoyl)-5,6,7,8-tetrahydro-1,5-naphthyridin-2-yl)propanamide] as the molecule, how does the IC50 read?
A: 4000 nM

Q: Which IC50 does the source give for `CC(C)(C(=O)Nc1ccc(F)cc1)c1ccc2c(n1)CCCN2C(=O)C1CCOCC1` [Example 186, N-(4-fluorophenyl)-2-methyl-2-[5-(oxane-4-carbonyl)-5,6,7,8-tetrahydro-1,5-naphthyridin-2-yl]propanamide] here?
A: 5.9 nM

Q: With `C[C@@H](NC(=O)c1ccc(F)cn1)c1ccc2c(c1)CCCN2C(=O)C1(F)CC1` (single isomer, unassigned) [Example 33] as the molecule, how does the IC50 read?
A: 729 nM

Q: Which IC50 does the source give for `O=C(Nc1ccc(Cl)cc1)C1(c2ccc3c(n2)CCCN3c2cccc(C(F)(F)F)n2)CCC1` [Example 409, N-(4-chlorophenyl)-1-(5-(6-(trifluoromethyl)pyridin-2-yl)-5,6,7,8-tetrahydro-1,5-naphthyridin-2-yl)cyclobutane-1-carboxamide] here?
A: 1.74 nM

Q: For `CCN(C(=O)N1CCc2cc(C3(C(=O)Nc4ccc(Cl)cc4)CCC3)ccc21)C(C)C` [Example 274, 5-{1-[(4-chlorophenyl)carbamoyl]cyclobutyl}-N-ethyl-N-(propan-2-yl)-2,3-dihydro-1H-indole-1-carboxamide], which IC50 is on record?
A: 3.3 nM

Q: For `COC(C(=O)Nc1ccc(F)cn1)c1ccc2c(c1)CCCN2C(=O)C1CC1` (stereo not shown) [Example 155, 2-(1-(cyclopropanecarbonyl)-1,2,3,4-tetrahydroquinolin-6-yl)-N-(5-fluoropyridin-2-yl)-2-methoxyacetamide], which IC50 is on record?
A: 273 nM

Q: `CC(C)[C@H](O)C(=O)N1CCCc2cc([C@H](C)C(=O)Nc3ccc(F)cc3)ccc21` (single isomer, unassigned) [Example 73] was tested. Which IC50 did it give?
A: 381 nM

Q: How did the IC50 turn out when `CC(NC(=O)c1ccc(F)cc1)c1ccc2c(n1)CCCN2C(=O)[C@@H]1CCCCO1` (stereo partly drawn) [Example 132, 4-fluoro-N-(1-(5-((S)-tetrahydro-2H-pyran-2-carbonyl)-5,6,7,8-tetrahydro-1,5-naphthyridin-2-yl)ethyl)benzamide] was run?
A: 48.7 nM

Q: How did the IC50 turn out when `C[C@@H](NC(=O)c1ccc(Cl)cc1)c1ccc2c(n1)OCCN2C(=O)c1cccc(Cl)c1` (single isomer, unassigned) [Example 255, 4-Chloro-N-(1-(1-(3-chlorobenzoyl)-2,3-dihydro-1H-pyrido[2,3-b][1,4]oxazin-6-yl)ethyl)benzamide] was run?
A: 74.6 nM

Q: With `O=C(NC1(c2ccc3c(n2)CCCN3c2ccncn2)CC1)c1ccc(F)cc1` [Example 246, 4-fluoro-N-(1-(5-(pyrimidin-4-yl)-5,6,7,8-tetrahydro-1,5-naphthyridin-2-yl)cyclopropyl)benzamide] as the molecule, how does the IC50 read?
A: 9.3 nM

Q: For `C[C@H](C(=O)Nc1ccc(F)cc1)c1ccc2c(c1)CCCN2C(=O)[C@@H]1CCCO1` [Example 84, (2S)-N-(4-fluorophenyl)-2-{1-[(2S)-oxolane-2-carbonyl]-1,2,3,4-tetrahydroquinolin-6-yl]propanamide], which IC50 is on record?
A: 32.3 nM

Q: `COC(=O)N1CCCc2cc(C3(C(=O)Nc4ccc(F)cn4)CCC3)ccc21` [Example 206, methyl 6-{1-[(5-fluoropyridin-2-yl)carbamoyl]cyclobutyl}-3,4-dihydroquinoline-1(2H)-carboxylate] was tested. Which IC50 did it give?
A: 1.5 nM

Q: `O=C(NC1(c2ccc3c(n2)CCCN3C(=O)C2CC2)CCC1)c1ccc(Cl)cc1` [Example 183, 4-chloro-N-{1-[5-(cyclopropanecarbonyl)-5,6,7,8-tetrahydro-1,5-naphthyridin-2-yl]cyclobutyl}benzamide] was tested. Which IC50 did it give?
A: 5.2 nM

Q: For `C[C@H](NC(=O)c1ccc(F)cc1)c1ccc2c(c1)CCCN2C(=O)C1(F)CC1` (single isomer, unassigned) [Example 32], which IC50 is on record?
A: 27.5 nM

Q: With `COC(=O)N1CCCc2nc(C(C)C(=O)Nc3ccc(F)cc3)ccc21` (stereo not shown) [Example 220, methyl 6-{1-[(4-fluorophenyl)amino]-1-oxopropan-2-yl}-3,4-dihydro-1,5-naphthyridine-1(2H)-carboxylate] as the molecule, how does the IC50 read?
A: 1.9 nM

Q: How did the IC50 turn out when `C=CCC(C(=O)Nc1ccc(F)cc1)c1ccc2c(c1)CCCN2C(=O)c1cccc(Cl)c1` (stereo not shown) [Example 58, 2-[1-(3-chlorobenzene-1-carbonyl)-1,2,3,4-tetrahydroquinolin-6-yl]-N-(4-fluorophenyl)pent-4-enamide] was run?
A: 4.3 nM

Q: `O=C(Nc1ccc(F)cc1)C(c1ccc2c(n1)CCCN2C(=O)C1CC1)C1CC1` (single isomer, unassigned) [Example 262, 2-(5-(cyclopropanecarbonyl)-5,6,7,8-tetrahydro-1,5-naphthyridin-2-yl)-2-cyclopropyl-N-(4-fluorophenyl)acetamide] was tested. Which IC50 did it give?
A: 11 nM

same assay, conditions: read-out: Hela IC50

Q: How did the IC50 turn out when `CC(NC(=O)c1cccc(C#N)c1)c1ccc2c(n1)CCCN2C(=O)OC1CC1` (stereo not shown) [Example 335, cyclopropyl 6-(1-(3-cyanobenzamido)ethyl)-3,4-dihydro-1,5-naphthyridine-1(2H)-carboxylate] was run?
A: 5700 nM

Q: `CC(NC(=O)c1ccc(F)cc1)c1ccc2c(n1)CCCN2C(=O)OCC1CCO1` (stereo not shown) [Example 313, oxetan-2-ylmethyl 6-(1-(4-fluorobenzamido)ethyl)-3,4-dihydro-1,5-naphthyridine-1(2H)-carboxylate] was tested. Which IC50 did it give?
A: 45.3 nM

Q: How did the IC50 turn out when `CC(NC(=O)c1ccc(F)cc1)c1ccc2c(n1)CCCN2C(=O)OCc1ccn(C)n1` (stereo not shown) [Example 317, (1-methyl-1H-pyrazol-3-yl)methyl 6-(1-(4-fluorobenzamido)ethyl)-3,4-dihydro-1,5-naphthyridine-1(2H)-carboxylate] was run?
A: 21.1 nM

Q: How did the IC50 turn out when `CC(NC(=O)c1ccc(F)cc1)c1ccc2c(n1)CCCN2c1cc(F)ccn1` (stereo not shown) [Example 380, 4-fluoro-N-(1-(5-(4-fluoropyridin-2-yl)-5,6,7,8-tetrahydro-1,5-naphthyridin-2-yl)ethyl)benzamide] was run?
A: 74.5 nM

Q: For `Cc1nc(N2CCCc3nc(C(C)NC(=O)c4ccc(Cl)cc4)ccc32)c2cc(Cl)ccc2n1` (stereo not shown) [Example 359, 5-(6-chloro-2-methylquinazolin-4-yl)-2-(1-(4-chlorobenzamido)ethyl)-5,6,7,8-tetrahydro-1,5-naphthyridin-1-ium 2,2,2-trifluoroacetate], which IC50 is on record?
A: 25 nM

Q: With `COc1cccc(N2CCCc3nc(C(C)NC(=O)c4ccc(Cl)cc4)ccc32)n1` (stereo not shown) [Example 352, 4-chloro-N-(1-(5-(6-methoxypyridin-2-yl)-5,6,7,8-tetrahydro-1,5-naphthyridin-2-yl)ethyl)benzamide] as the molecule, how does the IC50 read?
A: 4.01 nM
